Measured values as given in publication PMC6547740, “Potent and specific MTH1 inhibitors targeting gastric cancer” (Cell Death & Disease, 2019).

Columns and labels:
[1] = system: H1975 cells; assay: MTT cell viability, H1975; assay type: cell-based; conditions: Homo sapiens, NCI-H1975, 72 h
Procedure: (§1) The cell viability was determined by 3-(4,5-dimethylthiazol-2-yl)-2,5-diphenyltetrazolium bromide (MTT) assay, according to the manufacturer’s instructions. 1 day before treatment, cells were seeded into 96-well plates at a concentration of 2–5 × 10^3 cells per well, followed by treatment with fresh medium containing serial dilutions of candidate compounds for 48 or 72 h, 20 μL of MTT solution (5 mg/mL in PBS) was then added to each well. After treatment, the plates were incubated at 37 °C for another 4 h. Subsequently, the MTT solution was removed and 150 μL of DMSO was added to each well for 10 min, and then the plates were shaken to dissolve the dark blue crystal (formazan), the absorbance was detected at 570 nm using a BioTek microplate reader. The data were analyzed using SPSS 20 software.

[2] = system: GES-1 cells; assay: Colony formation assay, GES-1; assay type: cell-based, human; conditions: GES-1 gastric normal cells, 7 days treatment
Procedure: (§2) The day before treatment, cells were seeded into six-well plates at a concentration of 1 × 10^3 cells per well, and then the media were replaced with fresh media containing serial concentrations of candidate compounds. After 7 days of treatment, the cells were fixed with 75% ethanol, stained with 0.1% crystal violet solution and captured by the microscopy (Leica). After that, the crystal violet crystals were dissolved by adding methanol. The absorbance at 595 nm was measured by a BioTek micro plate reader. In the end, the data were analyzed using the GraphPad Prism 5 software.

[3] = system: HGC-27 cells; assay: Colony formation assay, HGC-27; assay type: cell-based, human; conditions: HGC-27, 7 days treatment, compared with DMSO or MI-929
Procedure: as §2

[4] = system: HGC-27 cells; assay: Western blot of DNA damage response markers, HGC-27; assay type: cell-based, human; conditions: HGC-27, 1-12 µM 48 h or 12 µM 12-48 h, dose and time-dependently, vs DMSO
Procedure: MGC-803, HGC-27 and GES-1 cells were seeded into 100mm^2 plastic dishes(1 × 10^5 cells/well) and incubated overnight prior to the addition of compound MI-743 at 1, 2, 4, 8 and 12 µM for 48 h or compound MI-743 at 12 µM for 12, 24, 36 and 48 h, respectively. After treatment, the cells were harvested and lysed with RIPA cell lysis buffer, containing protease inhibitor cocktail. Then, the cells were centrifuged at 12,000 × g for 20 min at 4 °C. The supernatant were collected and the concentration was determined by a Bicinchoninic Acid (BCA) Protein Assay kit, denatured at 100 °C for 10 min, separated by SDS−PAGE and transferred to 0.22 μm nitrocellulose membranes. After blocking by PBS containing 5% skim milk for 2 h at room temperature, the membranes were probed with the appropriate primary antibodies (1:500~1:1000) at 4 °C overnight, followed by the treatment of horseradish-peroxidase-conjugated secondary antibody (1:10000) at room temperature for 2 h. Subsequently, the membranes were washed with PBST, examined by enhanced chemiluminescence and the data was determined using Image J software.

[5] = biological target: MTH1 (Homo sapiens, UniProt P36639); assay: MTH1 recombinant protein activity / inhibitor screening (malachite green); assay type: biochemical; set-up: His-tag; made in house; host or cells: E. coli BL21(DE3); conditions: 5 nM recombinant MTH1, dGTP substrate, absorbance 630 nm; read-out: IC50 (MTH1 inhibition)
Procedure: On the basis of the ability of MTH1 in converting dGTP to dGMP and pyrophosphate, and the latter can then be hydrolyzed to […] by inorganic pyrophosphatase, the MTH1 activity was designed to measure the product of […], after its reaction with malachite green and ammonium molybdate(Fig. 2l), the green associated complex was measured at 630 nm by PerkinElmer Envision microplate reader.
Firstly, the assay buffer (100 mM Tris-acetate at pH 8.0, 40 mM NaCl, 10 mM Mg-acetate, 0.005% Tween 20 and 1 mM DTT) was added into a 96-well plate. Then, 5 nM recombinant human MTH1, […] dGTP and 0.2U/ml […] were added in sequence. After 60 min reaction, the mixture of 0.45 mg/mL malachite green and 4.2% ammonium molybdate in proportion of 3:1 were added. Then, the plates were incubated and shaken at room temperature for another 60 min. The absorbance was measured at 630 nm using the PerkinElmer Envision micro plate reader.

[6] = biological target: T1, MUTYH (Homo sapiens, UniProt Q9UIF7); assay: Cellular thermal shift assay (CETSA), MUTYH; assay type: binding; conditions: MGC-803 cells, 50 µM compound, heated 10 min from 43 to 61 °C
T1 construct: endogenous in cells; host or cells: MGC-803 (human gastric cancer cell line)
T1 sequence (Q9UIF7 whole entry): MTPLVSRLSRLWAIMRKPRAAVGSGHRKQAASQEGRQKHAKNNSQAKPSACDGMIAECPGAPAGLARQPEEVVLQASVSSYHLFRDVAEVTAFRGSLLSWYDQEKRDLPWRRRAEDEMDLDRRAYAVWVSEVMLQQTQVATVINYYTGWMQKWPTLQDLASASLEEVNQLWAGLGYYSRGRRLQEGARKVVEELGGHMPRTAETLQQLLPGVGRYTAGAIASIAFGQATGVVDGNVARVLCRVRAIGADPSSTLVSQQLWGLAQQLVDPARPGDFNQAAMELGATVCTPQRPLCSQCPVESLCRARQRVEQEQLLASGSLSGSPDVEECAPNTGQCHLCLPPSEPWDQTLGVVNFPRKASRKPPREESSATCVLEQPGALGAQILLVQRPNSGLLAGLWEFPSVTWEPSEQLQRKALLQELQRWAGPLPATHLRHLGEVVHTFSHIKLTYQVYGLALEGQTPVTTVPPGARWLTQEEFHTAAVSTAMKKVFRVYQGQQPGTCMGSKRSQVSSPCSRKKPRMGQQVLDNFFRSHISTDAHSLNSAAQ
Procedure: Cellular thermal shift assay (CETSA), also known as the target engagement assay was one-way to detect the intracellular interaction ability of compounds with its specific target. Firstly, cells were seeded into T75 culture flasks and cultured overnight. Then, the cells were treated with cell media containing 1‰ DMSO as blank control and candidate compounds for 3–5 h. Next, the cells were collected by centrifugation and resuspended by PBS, then the cells were aliquoted into 7 PCR tubes and heated using PCR instrument for 10 min from 43 to 61 °C. After that, cells were lysed using liquid nitrogen and three repeated cycles of freeze-thawing. Then, samples were centrifuged at 12,000 × g for 20 min at 4 °C. Supernatants were denatured at 100 °C for 10 min and kept at −20 °C until Western Blot analysis.

[7] = system: HGC-27 cells; assay: Alkaline comet assay, HGC-27; assay type: cell-based, human; conditions: HGC-27, 10 µM, 48 h, compared with DMSO
Procedure: MGC-803 and HGC-27 cells were seeded into 6-well plates(1.5 × 10^5 cells/well) and cultured overnight. For siRNA experiments, the control siRNA and MTH1 siRNA were transfected into cells. For compounds experiments, cells were treated with candidate compounds MI-743 for 48 h before collection. For the H2O2 control, cells were treated with 100 µM H2O2 for 10 min. Subsequently, cells were harvested, washed and resuspended with PBS. After counting, cells were mixed with 1.2% low melting-temperature agarose at 37 °C. The mixtures were layered onto pre-warmed glass slides, which were pre-coated with 1% agarose. After adding coverslips, slides were kept in 4 °C immediately for 10-15 min, followed by immersing in pre-chilled lysis buffer(2.5 M NaCl, 0.1 M EDTA, 10 mM Tris-HCL pH 7.7, 1% Triton X-100, 1% DMSO)for 5-8 h. Then, slides were washed three times with enzyme reaction buffer (40 mM HEPES pH 8.0, 0.1 M KCl, 0.5 mM EDTA and 0.2 mg/mL BSA) and incubated for another 45 min in pre-chilled alkaline electrophoresis buffer (50 mM NaOH, 1 mM EDTA, 1% DMSO, pH12.8). After electrophoresis for 30 min at 25 V, slides were neutralized with 0.4 M Tris-HCl pH 7.0 for 1 h and stained with 1‰ EB for 5 min. At last, images were acquired using fluorescence microscope and analysised by CometScore software.

[8] = system: HL-7702 cells; assay: MTT cell viability, HL-7702; assay type: cell-based; conditions: Homo sapiens, L02, normal liver cell line, 72 h
Procedure: as §1

- IC50 [1]: 15.1 ± 1.18 µM
- IC50 [5]: 91.4 ± 1.45 nM
- temperature at which MUTYH became unstable [6]: 49 °C
Compound: C#CCSc1nc(NNC(N)=S)c(C#N)c(-c2ccc3oc(=O)ccc3c2)n1 [MI-743, 2-(5-cyano-6-(2-oxo-2H-chromen-6-yl)-2-(prop-2-yn-1-ylthio)pyrimidin-4-yl)hydrazine-1-carbothioamide]
- colony formation [2]: no obviously inhibitory effect
- colony formation [3]: smaller and fewer colonies
- expression levels of p53pS15, ATMpS1981 and p21 [4]: significantly increased
- comet tail moment [7]: significantly elevated
- IC50 [8]: 20.1 ± 1.76 µM
